{"source": "patent US8993637B2", "about": "(priority 2013, dated 2015)", "key": {"[1]": {"system": "ERK1/2, JNK1/2, p38 in RAW 264.7 macrophages", "experiment": "MAPK phosphorylation (Western blotting) in LPS-activated macrophages", "assay_type": "cell-based, murine", "details": "Citral 10 μg/ml; LPS 1 μg/ml 0-60 min; p<0.05", "description": "RAW-Blue™ cells (Murine macrophages RAW264.7 stably transfected with the NF-κB reporter gene) purchased from InvivoGen (San Diego, Calif.). LPS (from Escherichia coli 0111:B4) and mouse antibodies against phospho-ERK1/2, phospho-JNK1/2, and phospho-p38 (all from Sigma, St. Louis, Mo.). Rabbit antibodies against mouse ERK1, JNK1, and p38, and HRP-labeled second antibodies were purchased from Santa Cruz Biotechnology, and IL-1β, IL-6, and TNF-α ELISA kits from R&D Systems. ROS production assay, NO production assay, NF-κB reporter assay, ELISA, and Western blotting were performed as described previously."}, "[2]": {"system": "mouse FSGS model (adriamycin-induced, BALB/c mice)", "experiment": "Mouse FSGS model: urine protein and renal function (serum BUN, Cr)", "assay_type": "in vivo", "details": "Citral 200 mg/kg daily by gavage", "procedure": "A progressive type of mouse FSGS model was used, particularly characterized by EPHLs, a key histopathology index of progression of FSGS, peri-glomerular inflammation, and progressive glomerular hyalinosis/sclerosis. The FSGS model was induced in 8-week-old male BALB/c mice (National Laboratory Animal Center, Taipei, Taiwan) by intravenous injection of a single dose of adriamycin (0.10 mg/10 g body weight) (Pfizer, New York, N.Y.) as described previously. […] Age- and sex-matched BALB/c mice were used as normal controls. Urine samples were collected in metabolic cages on days 3, 7, 14, 21, and 28. Renal cortical tissues and blood samples were collected when the mice were sacrificed and stored appropriately for further analysis. The concentration of urine protein was determined using BCA kits (Pierce, Rockford, Ill.) as described previously and normalized to urine creatinine (Cr) levels measured using kits (Wako Pure Chemical Industries, Osaka, Japan), as described previously. Serum levels of blood urea nitrogen (BUN) and Cr were determined using BUN kits and Cr kits (both from Fuji Dry-Chem Slide, Fuji Film Medical, Tokyo, Japan), as described previously. Urine and blood samples were collected from the mice at different time points, which were analyzed for proteinuria and blood urea nitrogen (BUN) and creatinine (Cr) levels by using a urease assay and a picric acid method respectively (Nephron 1998; 78: 440-452)."}}, "data": [{"smiles": "CC(C)=CCCC(C)=CC=O", "note": "(racemic) [Citral, 3,7-dimethyl-2,6-octadienal]", "values": [{"measurement": "LPS-induced phosphorylation of ERK1/2", "setting": "[1]", "result": "significantly inhibited"}, {"measurement": "LPS-induced phosphorylation of JNK1/2", "setting": "[1]", "result": "significantly inhibited"}, {"measurement": "proteinuria (urine protein)", "setting": "[2]; day 14, FSGS+Citral vs FSGS+vehicle mice", "result": "slightly inhibited"}, {"measurement": "proteinuria (urine protein)", "setting": "[2]; day 21, vs FSGS+vehicle mice, p<0.005", "result": "markedly inhibited"}, {"measurement": "proteinuria (urine protein)", "setting": "[2]; day 28, vs FSGS+vehicle mice, p<0.01", "result": "markedly inhibited"}, {"measurement": "serum levels of BUN", "setting": "[2]; days 14 and 28, p<0.05", "result": "almost, or completely, suppressed"}, {"measurement": "serum levels of Cr", "setting": "[2]; days 14 and 28, p<0.05", "result": "almost, or completely, suppressed"}]}]}
